These results are taken from patent USRE47475E1, “Selective agents for pain suppression” (WiSys Technology Foundation, Inc., priority 2002, dated 2019).

The subject of one data set is seizures. The note with it: rats, even orally; cited from earlier work.
The test system of a further data set is neuropathic pain. To be noted: Knabl et al., 2008, cited from earlier work; for analgesic effect after repeated administration (tolerance): once per day for nine days.
For data set [1], the target named is T1, GABAA/α5 (α5β3γ2 GABAA receptor) (Homo sapiens, UniProt P18507+P31644).
T1 construct: expressed in transfected cells
The experiment in a line: competitive binding assay with [3H]flunitrazepam. To be noted: Table 3; read-out: Binding Affinity at GABAA/α5. As for the experimental part: (§1) Membranes were harvested with a Brandel cell harvester followed by three ice-cold washes onto polyethyleneimine-pretreated (0.3%) Whatman GF/C filters. Filters were dried overnight and then soaked in Ecoscint, a liquid scintillation cocktail (National Diagnostics; Atlanta, Ga.). Bound radioactivity was quantified by liquid scintillation counting. Membrane protein concentrations were determined using an assay kit from Bio-Rad (Hercules, Calif.) with bovine serum albumin as the standard.
as §1, with “The GABAA subunit selectivity of several compounds prepared as described above were determined using competitive binding assays. […] Membranes” for “Membranes”

Data set [2] concerns the target T2, GABAA/α4 (α4β3γ2 GABAA receptor) (Homo sapiens, UniProt P18507+P48169).
T2 construct: expressed in transfected cells
The experiment in a line: competitive binding assay with [3H]flunitrazepam. To be noted: Table 3; read-out: Binding Affinity at GABAA/α4. The method, then: as §1
as §1, with “The GABAA subunit selectivity of several compounds prepared as described above were determined using competitive binding assays. […] Membranes” for “Membranes”

For data set [3], the target named is T3, GABAA/α2 (α2β3γ2 GABAA receptor) (Homo sapiens, UniProt P18507+P47869).
T3 construct: expressed in transfected cells
Kind of data set: competitive binding assay with [3H]flunitrazepam. To be noted: Table 3; read-out: Binding Affinity at GABAA/α2. As for the experimental part:
as §1
as §1, with “The GABAA subunit selectivity of several compounds prepared as described above were determined using competitive binding assays. […] Membranes” for “Membranes”

Data set [4] addresses T4, GABAA/α1 (α1β3γ2 GABAA receptor) (Homo sapiens, UniProt P14867+P18507).
T4 construct: expressed in transfected cells
Kind of data set: competitive binding assay with [3H]flunitrazepam. To be noted: Table 3; read-out: Binding Affinity at GABAA/α1. As for the experimental part:
as §1
as §1, with “The GABAA subunit selectivity of several compounds prepared as described above were determined using competitive binding assays. […] Membranes” for “Membranes”

The target of data set [5] is T5, GABAA/α6 (α6β3γ2 GABAA receptor) (Homo sapiens, UniProt P18507+Q16445).
T5 construct: expressed in transfected cells
The experiment in a line: competitive binding assay with [3H]flunitrazepam. The note with it: Table 3; read-out: Binding Affinity at GABAA/α6. As for the experimental part: as §1
as §1, with “The GABAA subunit selectivity of several compounds prepared as described above were determined using competitive binding assays. […] Membranes” for “Membranes”

Data set [6] concerns the target T6, GABAA/α3 (α3β3γ2 GABAA receptor) (Homo sapiens, UniProt P18507+P34903).
T6 construct: expressed in transfected cells
Kind of data set: competitive binding assay with [3H]flunitrazepam. The note with it: Table 3; read-out: Binding Affinity at GABAA/α3. The method, then:
as §1
as §1, with “The GABAA subunit selectivity of several compounds prepared as described above were determined using competitive binding assays. […] Membranes” for “Membranes”

For data set [7], the system named is locomotor activity of mice. The experiment in a line: spontaneous locomotor activity (activity cage). The data set is classed as in vivo. The note with it: i.p. As for the experimental part:
Locomotor activity: Spontaneous locomotor activity was tested using a commercially available microprocessor equipped activity cage (actiframe, Gerb Elektronik). Mice were placed in the activity cage 15 min before testing. Locomotor activity was measured for 1 h after intraperitoneal administration of vehicle, gabapentin or HZ166 during the early light phase of the day-night cycle.

In data set [8] the test system is neuropathic pain after CCI of the sciatic nerve. The experiment in a line: chronic constriction injury (CCI) model, mechanical sensitization (von Frey filaments). The data set is classed as in vivo, mice. As for the experimental part: In addition, the pro- or antinociceptive effects of the compounds of the present invention are analyzed in the chronic constriction injury (CCI) model. The GABAA receptor subunit selective test compounds of the present invention are analysed in the CCI model in 7-8-week-old C57BL/6 mice. See Bennett, G. J. & Xie, Y. K. A peripheral mononeuropathy in rat that produces disorders of pain sensation like those seen in man. […] Seven to eight week old mice are anesthetized with isofluran. Unilateral constriction injury of the left sciatic nerve just proximal to the trifurcation is performed with three loose ligatures. In sham-operated animals the sciatic nerve is exposed and the connective tissue is freed, but no ligatures are applied. […] Heat hyperalgesia, cold allodynia and mechanical sensitization are assessed 7-9 days after surgery. Mechanical sensitivity is assessed with electronic von Frey filaments (IITC).
Pain studies—Neuropathic pain: HZ166 and gabapentin were analyzed in the chronic constriction injury (CCI) model. Unilateral constriction injury of the left sciatic nerve just proximal to the trifurcation was performed as described previously (Bennett and Xie, 1988). Anesthesia was induced and maintained by 2% isoflurane, combined with oxygen (30%). The sciatic nerve was exposed at the mid-thigh level proximal to the sciatic trifurcation by blunt dissection through the biceps femoris muscle. […] of nerve were freed of adhering tissue and three chromic gut ligatures (4/0) (Ethicon) were loosely put around the nerve with about 1 mm spacing. The ligatures were tied until they elicited a brief twitch in the hindlimb. The surgical wound was closed in layers. Heat hyperalgesia and mechanical sensitization were assessed 7-16 days after surgery.
Pain Studies—Mechanical sensitization: Mechanical sensitivity was assessed with dynamic von Frey filaments (IITC, Woodland Hills, Calif.). 4-5 measurements were made for each time point and animal and averaged. Measurements of paw withdrawal thresholds of the injured paw and of the contralateral paw were made alternately.
Statistical Analysis: For all different doses and vehicle, baseline paw withdrawal thresholds/latencies on day 7 after nerve ligation or on day 2 after zymosan A injection were subtracted from all later withdrawal thresholds and the area under the curve (AUC) was calculated. Drug effects were expressed as percent maximum possible effect (MPE) calculated from comparisons of paw withdrawal latencies or thresholds obtained prior to surgery or inflammation and before and after drug treatment. […] Unless otherwise indicated, statistical comparisons were made with one-way analysis of variance (ANOVA) followed by Scheffe's post hoc test. P values<0.05 were considered significant.

Data set [9] relates to motor coordination of mice. The experiment in a line: rotarod test (motor impairment). The data set is classed as in vivo. The note with it: HZ166 16 and 48 mg/kg, gabapentin 10 and 30 mg/kg, i.p., 60 min after treatment. The method, then: Motor impairment: A possible impairment of motor function was analyzed in the rotarod test. Mice were trained on the rotarod (diameter 3 cm, 2 rpm) for 2 days. Animals capable of remaining on the rotarod in the absence of treatment for at least 2 min were selected for drug testing. On the test day, the latency to fall off the rod was recorded before and 60 minutes after treatment with vehicle, HZ166 or gabapentin.
For orientation: The rotarod test checks motor coordination on a turning rod.

Consider `C#Cc1ccc2c(c1)C(c1ccccn1)=NCc1c(C(=O)O)ncn1-2` [HZ-166 acid], for which the “anticonvulsant activity of the sole metabolite” value in the data set on seizures is “anticonvulsant”.
On to `Cn1ncnc1COc1nn2c(-c3cc(F)ccc3F)nnc2cc1C(C)(C)C` [L-838,417], for which, in the data set with neuropathic pain, the “antihyperalgesic activity in a rat neuropathic pain model” value is on record as “good antihyperalgesic activity” and the “analgesic effect after repeated administration (tolerance)” value was “did not diminish”.
Regarding `C#Cc1ccc2c(c1)C(c1ccccc1)=NCC(=O)N2C` [QB-II-066, 1-Methyl-7-acetyleno-5-phenyl-1,3-dihydro-benzo[e]-1,4-diazepin-2-one], the Ki in data set [1] was 6.8 nM; in data set [2], > 1000 nM; in data set [3], 42.1 nM; in [4], 76.3 nM; in data set [5], > 1000 nM; in [6], 47.4 nM.
`NCC1(CC(=O)O)CCCCC1` [gabapentin, reference compound]: in data set [7], the “dose at which sedative effects were observed” value worked out at 30 mg/kg and the “doses with significant reduction in locomotor activity” value is recorded as ≥ 30 mg/kg. The “reversal of mechanical hypersensitivity” value in [8] (i.p., CCI model) is “dose-dependent reversal”. Further, the “maximum antihyperalgesic effect (efficacy) compared with HZ166” value in [8] (reached only with sedative doses) was “higher”. Besides, the “interfered with rotarod performance” value in data set [9] is “Neither”.
As to `CN1CC[C@]23c4c5ccc(O)c4O[C@H]2[C@@H](O)C=C[C@H]3[C@H]1C5` [morphine], the “analgesic effect after repeated administration (tolerance)” value with neuropathic pain is given as “complete tolerance”.
